Test results taken from US6737383B1, “Herbicidal oxadiazolidines” (priority 1999, dated 2004).

Experiments:
purple nutsedge = test: Test B pre/postemergence purple nutsedge; type: in vivo, Cyperus rotundus
Source text: (§1) Seeds of bedstraw (Galium aparine), blackgrass (Alopecurus myosuroides), surinam grass (Brachiaria decumbens), cocklebur (Xanthium strumarium), corn (Zea mays), crabgrass (Digitaria sanguinalis), giant foxtail (Setaria faberii), morningglory (Ipomoea hederacea), pigweed (Amaranthus retroflexus), rape (Brassica napus), soybean (Glycine max), sugar beet (Beta vulgaris), velvetleaf (Abutilon theophrasti), wheat (Triticum aestivum), wild oat (Avena fatua) and purple nutsedge (Cyperus rotundus) tubers were planted and treated preemnergence with test chemicals formulated in a non-phytotoxic solvent mixture which included a surfactant.
(§2) At the same time, these crop and weed species were also treated with postemergence applications of test chemicals formulated in the same manner. Plants ranged in height from 2 to 18 cm (1- to 4-leaf stage) for postemergence treatments. Plant species in the flood test consisted of rice (Oryza sativa), smallflower flatsedge (Cyperus difformis), duck salad (Heteranthera limosa) and bamyardgrass (Echinochloa crus-galli) grown to the 2-leaf stage for testing. Treated plants and controls were maintained in a greenhouse for twelve to sixteen days, after which all species were compared to controls and visually evaluated. Plant response ratings, summarized in Table B, are based on a scale of 0 to 10 where 0 is no effect and 10 is complete control. A dash (−) response means no test result.

sugar beet = test: Test B pre/postemergence sugar beet; type: in vivo, Beta vulgaris; conditions: for Plant response rating, Sugarbeets: Rate 250 g/ha
Source text: as §1, §2

crabgrass = test: Test B pre/postemergence crabgrass; type: in vivo, Digitaria sanguinalis
Source text: as §1, §2

rape = test: Test B pre/postemergence rape; type: in vivo, Brassica napus
Source text: as §1, §2

blackgrass = test: Test B pre/postemergence blackgrass; type: in vivo, Alopecurus myosuroides
Source text: as §1, §2

wild oat = test: Test B pre/postemergence wild oat; type: in vivo, Avena fatua; conditions: for Plant response rating, Wild oats: Rate 250 g/ha
Source text: as §1, §2

pigweed = test: Test B pre/postemergence pigweed; type: in vivo, Amaranthus retroflexus
Source text: as §1, §2

cocklebur = test: Test B pre/postemergence cocklebur; type: in vivo, Xanthium strumarium
Source text: as §1, §2

corn = test: Test B pre/postemergence corn; type: in vivo, Zea mays
Source text: as §1, §2

velvetleaf = test: Test B pre/postemergence velvetleaf; type: in vivo, Abutilon theophrasti; conditions: for Plant response rating, Velvetleaf: Rate 250 g/ha
Source text: as §1, §2

wheat = test: Test B pre/postemergence wheat; type: in vivo, Triticum aestivum; conditions: for Plant response rating, Wheat: Rate 250 g/ha
Summary of the method: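 Test chemicals in a non-phytotoxic solvent mixture with surfactant were sprayed preemergence onto planted seeds and postemergence onto plants 2 to 18 cm tall (1- to 4-leaf stage). After twelve to sixteen days in a greenhouse, injury was visually rated against untreated controls from 0 (no effect) to 10 (complete control).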

morningglory = test: Test B pre/postemergence morningglory; type: in vivo, Ipomoea hederacea
Source text: as §1, §2

soybean = test: Test B pre/postemergence soybean; type: in vivo, Glycine max
Source text: as §1, §2

surinam grass = test: Test B pre/postemergence surinam grass; type: in vivo, Brachiaria decumbens
Source text: as §1, §2

bedstraw = test: Test B pre/postemergence bedstraw; type: in vivo, Galium aparine
Source text: as §1, §2

giant foxtail = test: Test B pre/postemergence giant foxtail; type: in vivo, Setaria faberii
Source text: as §1, §2

[1] = Postemergence, Rate 125 g/ha, scale of 0 to 10 where 0 is no effect and 10 is complete control
[2] = Postemergence, Rate 250 g/ha, scale 0 to 10, 0 no effect, 10 complete control
[3] = Preemergence, Rate 62 g/ha, scale 0 to 10 (0 no effect, 10 complete control)
[4] = Preemergence, Rate 125 g/ha, scale 0 to 10 (0 no effect, 10 complete control)
[5] = Preemergence, Rate 250 g/ha, scale of 0 to 10 where 0 is no effect and 10 is complete control
[6] = Preemergence, Rate 500 g/ha, scale 0 to 10 (0 no effect, 10 complete control)
[7] = Rate 62 g/ha, Postemergence, scale of 0 to 10 where 0 is no effect and 10 is complete control
[8] = Rate 500 g/ha, Postemergence, scale 0 to 10, 0 no effect, 10 complete control
[9] = Preemergence, Rate 125 g/ha, 0 is no effect, 10 is complete control
[10] = Preemergence, scale of 0 to 10 where 0 is no effect and 10 is complete control
[11] = Postemergence, scale 0 to 10, 0 is no effect, 10 is complete control
[12] = Rate 250 g/ha, Postemergence, scale 0 to 10, 0 is no effect, 10 is complete control

For COc1ccccc1Cn1c(=O)on(C(=O)N(c2ccccc2)C(C)C)c1=O [Compound 104], the “Nutsedge plant response rating” value (purple nutsedge; [1]) was 0, the “Nutsedge plant response rating” value (purple nutsedge; [2]) was 0 and the “Nutsedge plant response rating” value (purple nutsedge; [3]) was 0. The “Plant response rating, Nutsedge” value (purple nutsedge; [4]) was 0, the “Plant response rating, Nutsedge” value (purple nutsedge; [5]) was 0 and the “Nutsedge plant response rating” value (purple nutsedge; [6]) was 0. The “Nutsedge plant response rating” value (purple nutsedge; [7]) was 0, the “Nutsedge plant response rating” value (purple nutsedge; [8]) was 0 and the “Sugarbeets plant response rating” value (sugar beet; [1]) was 1. For the same molecule, the “Sugarbeets plant response rating” value (sugar beet; [3]) was 0, the “Sugarbeets plant response rating (0 to 10 scale)” value (sugar beet; [9]) was 0 and the “Plant response rating, Sugarbeets” value (sugar beet; [10]) was 1. The “Sugarbeets plant response rating” value (sugar beet; [6]) was 6, the “Sugarbeets plant response rating” value (sugar beet; [7]) was 0 and the “Plant response rating, Sugarbeets” value (sugar beet; [11]) was 1. For the same molecule, the “Sugarbeets plant response rating” value (sugar beet; [8]) was 3, the “Crabgrass plant response rating” value (crabgrass; [1]) was 4 and the “Crabgrass plant response rating” value (crabgrass; [2]) was 5. For the same molecule, the “Crabgrass plant response rating” value (crabgrass; [3]) was 0, the “Plant response rating, Crabgrass” value (crabgrass; [4]) was 0 and the “Plant response rating, Crabgrass” value (crabgrass; [5]) was 1. For the same molecule, the “Crabgrass plant response rating” value (crabgrass; [6]) was 9, the “Crabgrass plant response rating” value (crabgrass; [7]) was 0 and the “Crabgrass plant response rating” value (crabgrass; [8]) was 8. The “Rape plant response rating” value (rape; [1]) was 0, the “Rape plant response rating” value (rape; [2]) was 0 and the “Rape plant response rating” value (rape; [3]) was 0. For the same molecule, the “Plant response rating, Rape” value (rape; [4]) was 0, the “Plant response rating, Rape” value (rape; [5]) was 0 and the “Rape plant response rating” value (rape; [6]) was 0. For the same molecule, the “Rape plant response rating” value (rape; [7]) was 0, the “Rape plant response rating” value (rape; [8]) was 2 and the “Blackgrass plant response rating” value (blackgrass; [1]) was 0. The “Blackgrass plant response rating” value (blackgrass; [2]) was 5, the “Blackgrass plant response rating” value (blackgrass; [3]) was 0 and the “Plant response rating, Blackgrass” value (blackgrass; [4]) was 3. For the same molecule, the “Plant response rating, Blackgrass” value (blackgrass; [5]) was 6, the “Blackgrass plant response rating” value (blackgrass; [6]) was 7 and the “Blackgrass plant response rating” value (blackgrass; [7]) was 0. The “Blackgrass plant response rating” value (blackgrass; [8]) was 6, the “Wild oats plant response rating” value (wild oat; [1]) was 0 and the “Wild oats plant response rating” value (wild oat; [3]) was 0. For the same molecule, the “Wild oats plant response rating (0 to 10 scale)” value (wild oat; [9]) was 2, the “Plant response rating, Wild oats” value (wild oat; [10]) was 4 and the “Wild oats plant response rating” value (wild oat; [6]) was 7. For the same molecule, the “Wild oats plant response rating” value (wild oat; [7]) was 0, the “Plant response rating, Wild oats” value (wild oat; [11]) was 0 and the “Wild oats plant response rating” value (wild oat; [8]) was 2. For the same molecule, the “Redroot pigweed plant response rating” value (pigweed; [1]) was 3, the “Redroot pigweed plant response rating” value (pigweed; [3]) was 0 and the “Plant response rating, Redroot pigweed” value (pigweed; [4]) was 0. The “Plant response rating, Redroot pigweed” value (pigweed; [5]) was 0, the “Redroot pigweed plant response rating” value (pigweed; [6]) was 4 and the “Redroot pigweed plant response rating” value (pigweed; [7]) was 1. The “Plant response rating, Redroot pigweed” value (pigweed; [12]) was 3, the “Redroot pigweed plant response rating” value (pigweed; [8]) was 7 and the “Cocklebur plant response rating” value (cocklebur; [1]) was 0. The “Cocklebur plant response rating” value (cocklebur; [2]) was 2, the “Plant response rating, Cocklebur” value (cocklebur; [4]) was 0 and the “Plant response rating, Cocklebur” value (cocklebur; [5]) was 0. For the same molecule, the “Cocklebur plant response rating” value (cocklebur; [6]) was 0, the “Cocklebur plant response rating” value (cocklebur; [7]) was 0 and the “Cocklebur plant response rating” value (cocklebur; [8]) was 3. For the same molecule, the “Corn plant response rating” value (corn; [1]) was 0, the “Corn plant response rating” value (corn; [2]) was 0 and the “Corn plant response rating” value (corn; [3]) was 0. For the same molecule, the “Plant response rating, Corn” value (corn; [4]) was 0, the “Plant response rating, Corn” value (corn; [5]) was 0 and the “Corn plant response rating” value (corn; [6]) was 2. The “Corn plant response rating” value (corn; [7]) was 0, the “Corn plant response rating” value (corn; [8]) was 0 and the “Velvetleaf plant response rating” value (velvetleaf; [1]) was 0. For the same molecule, the “Velvetleaf plant response rating” value (velvetleaf; [3]) was 0, the “Velvetleaf plant response rating (0 to 10 scale)” value (velvetleaf; [9]) was 0 and the “Plant response rating, Velvetleaf” value (velvetleaf; [10]) was 0. For the same molecule, the “Velvetleaf plant response rating” value (velvetleaf; [6]) was 0, the “Velvetleaf plant response rating” value (velvetleaf; [7]) was 0 and the “Plant response rating, Velvetleaf” value (velvetleaf; [11]) was 3. The “Velvetleaf plant response rating” value (velvetleaf; [8]) was 3, the “Wheat plant response rating” value (wheat; [1]) was 0 and the “Wheat plant response rating” value (wheat; [3]) was 0. The “Wheat plant response rating (0 to 10 scale)” value (wheat; [9]) was 0, the “Plant response rating, Wheat” value (wheat; [10]) was 0 and the “Wheat plant response rating” value (wheat; [6]) was 4. For the same molecule, the “Wheat plant response rating” value (wheat; [7]) was 0, the “Plant response rating, Wheat” value (wheat; [11]) was 0 and the “Wheat plant response rating” value (wheat; [8]) was 0. For the same molecule, the “Morningglory plant response rating” value (morningglory; [1]) was 10, the “Morningglory plant response rating” value (morningglory; [2]) was 10 and the “Morningglory plant response rating” value (morningglory; [3]) was 0. The “Plant response rating, Morningglory” value (morningglory; [4]) was 0, the “Plant response rating, Morningglory” value (morningglory; [5]) was 0 and the “Morningglory plant response rating” value (morningglory; [6]) was 0. For the same molecule, the “Morningglory plant response rating” value (morningglory; [7]) was 10, the “Morningglory plant response rating” value (morningglory; [8]) was 10 and the “Soybean plant response rating” value (soybean; [1]) was 5. For the same molecule, the “Soybean plant response rating” value (soybean; [3]) was 0, the “Plant response rating, Soybean” value (soybean; [4]) was 0 and the “Plant response rating, Soybean” value (soybean; [5]) was 0. For the same molecule, the “Soybean plant response rating” value (soybean; [6]) was 0, the “Soybean plant response rating” value (soybean; [7]) was 4 and the “Plant response rating, Soybean” value (soybean; [12]) was 5. For the same molecule, the “Soybean plant response rating” value (soybean; [8]) was 5, the “B. signalgrass plant response rating” value (surinam grass; Postemergence, Rate 62 g/ha, scale 0 to 10, 0 is no effect, 10 is complete control) was 0 and the “B. signalgrass plant response rating” value (surinam grass; [2]) was 0. The “B. signalgrass plant response rating” value (surinam grass; [3]) was 0, the “Plant response rating, B. signalgrass” value (surinam grass; [4]) was 0 and the “Plant response rating, B. signalgrass” value (surinam grass; [5]) was 5. The “B. signalgrass plant response rating” value (surinam grass; [6]) was 6, the “B. signalgrass plant response rating” value (surinam grass; Rate 125 g/ha, Postemergence, scale 0 to 10, 0 no effect, 10 complete control) was 0 and the “B. signalgrass plant response rating” value (surinam grass; Rate 500 g/ha, Postemergence, scale of 0 to 10 where 0 is no effect and 10 is complete control) was 0. The “Bedstraw plant response rating” value (bedstraw; [3]) was 0, the “Plant response rating, Bedstraw” value (bedstraw; [4]) was 0 and the “Plant response rating, Bedstraw” value (bedstraw; [5]) was 0. The “Bedstraw plant response rating” value (bedstraw; [6]) was 0, the “Bedstraw plant response rating” value (bedstraw; [8]) was 6 and the “Giant foxtail plant response rating” value (giant foxtail; [1]) was 3. For the same molecule, the “Giant foxtail plant response rating” value (giant foxtail; [2]) was 4, the “Giant foxtail plant response rating” value (giant foxtail; [3]) was 0 and the “Plant response rating, Giant foxtail” value (giant foxtail; [4]) was 4. For the same molecule, the “Plant response rating, Giant foxtail” value (giant foxtail; [5]) was 10, the “Giant foxtail plant response rating” value (giant foxtail; [6]) was 10 and the “Giant foxtail plant response rating” value (giant foxtail; [7]) was 3. The “Giant foxtail plant response rating” value (giant foxtail; [8]) was 8.
